A word on the EC50: it is the concentration that produces a half-maximal response. The Emax is the maximal effect, on the per cent scale that the assay sets.

“Also recorded” adds a separate entry of the source.

The target in assay [1] is T1, human CB2 receptor (Homo sapiens, UniProt P34972).
T1 construct: expressed in transfected cells
The experiment in a line: 35S-GTPγS binding, CHO cells expressing human CB2 receptor. It is filed as biochemical. The protocol: (§1) (Martin et al. 2002; Wiley et al. 2002) CB1 and CB2 receptor affinities were determined using ^3H-CP 55,940 binding to rat brain membranes and to Chinese Hamster Ovary (CHO) cells stably expressing the human CB2 receptor, respectively. In vitro functional activity was determined in these same preparations using ^35S-GTPγS binding. For in vivo behavioural effects, mice were injected intravenously with the drugs prepared in ethanol:emulphor:saline (1:1:18). The mice were evaluated for locomotor activity, analgesia, body temperature, and catalepsy. These behaviours are collectively referred to as the tetrad test and are indicative of CB1 receptor activity.
A general note: Binding of GTPγS marks nucleotide exchange on a G protein.

The test system of assay [2] is mice. Description: Tetrad test (locomotor activity, analgesia, body temperature, catalepsy), indicative of CB1 receptor activity. It is filed as in vivo, mouse. The settings on record: i.v., doses up to 30 mg/kg. The protocol:
The cerebral ischemia/reperfusion studies were carried out on 8 week old male C57BL/6 mice (weighing 23 to 27 g; Taconic N.Y.) and conducted in accordance with the guidelines approved by Institute for Animal Care and Use Committee at Temple University. The behavioural evaluation of the cannabinoid analogs was carried out in 8-week old ICR male mice weighing 23-27 g in accordance with the guidelines approved by the Institute for Animal Care and Use Committee at Virginia Commonwealth University.
as §1

The test system of assay [3] is C57BL/6 mice. Description: Regional cerebral blood flow (rCBF) during MCAO. It is filed as in vivo, mouse. Particulars: 1 mg/kg, 1 hour prior to occlusion, versus vehicle. The protocol: (§2) The animals were anesthetized with an intraperitoneal injection of Ketamine ([…])-Xylazine (20 mg/kg) mixture (1:1) at a dose of 1 ml/kg. Body temperature was maintained at […]° C. by a heating lamp and heating pad. Middle cerebral artery occlusion was achieved by the intraluminal filament methods. (Hata et al. 1998) Briefly, a midline neck incision was made under the operation microscope; the right common carotid artery (CCA), external carotid artery (ECA) and internal carotid artery (ICA) were isolated. The ECA was ligated with 6-0 silk suture distal from the ICA-ECA branch and then cut distal from ligated point. Another 6-0 silk suture was tied loosely around ECA at close to the origin at the CCA. A blunted 5-0 monofilament nylon suture coated with poly-L-lysine (0.1% in deionized water, Sigma) (Belayev et al. 1999) was introduced from a small incision on ECA and then advanced into the circle of Willis, and finally to the origin of the middle cerebral artery. The silk suture around the ECA stump was tied tightly to prevent bleeding and secure the nylon suture. The nylon suture was removed after 60 minutes occlusion and ECA was permanently tied. Reperfusion was confirmed when pulsations were again observed in ICA.
A laserPro Blood Perfusion Monitor (TSI Inc) was used to monitor regional cerebral blood flow (rCBF) prior to ischemia, during MCAO and reperfusion. […]

The subject of assay [4] is C57BL/6 mice. The experiment in a line: Infarct volume after middle cerebral artery occlusion and reperfusion (MCAO/R). It is filed as in vivo, mouse. Particulars: 24 hours after MCAO. The protocol: as §2
The CB2 agonists (O-1966 and O-3853: described in Wiley et al and WO 03/091189, incorporated herein by reference, and the copending application of Razdan et al)) were dissolved in a pure ethanol:emulphor:saline mixed solution at 1:1:18. The CB2 agonists (1 mg/kg) or equal volume of vehicle were administered as an intravenous injection into the jugular vein 1 hour before MCAO or 10 minutes after reperfusion. The investigator was blinded with regard to whether the animals were members of vehicle or treatment groups during all experimental procedures and measurements.
Animals were euthanized with an overdose of pentobarbital (200 mg/kg i.p) 24 hours after MCAO and then the brains were removed. The brains were chilled in ice for 10 minutes to slightly harden the tissue. Five 2 mm coronal sections were cut using a mouse brain matrix (Zivic lab).The brain sections were placed in 2% triphenyltetrazolium chloride (TTC) (Sigma, Inc) dissolved in saline and stained for 20 minutes at 37° C. in the dark. The brain sections were then fixed in 4% paraformaldehyde at 4° C. for 24 hours and the anterior and caudal face of each section was scanned by a flatbed color scanner (Microtek Inc). The resulting images were captured as JPEG files (FIG. 2E) and analyzed with NIH image software. The infarct volumes were expressed as mm^3 as well as the percentage of the ipsilateral hemisphere.

In assay [5] the test system is C57BL/6 mice. The experiment in a line: Neurological evaluation (five-point deficit score) after MCAO/R. It is filed as in vivo, mouse. Particulars: 24 hours post-ischemia. Here is the method: as §2, with “The silk suture around the ECA stump was tied tightly to prevent bleeding and secure the nylon suture. The nylon suture was removed after 60 minutes occlusion and ECA was permanently tied. Reperfusion was confirmed when pulsations were again observed in ICA.” left out
The severity of neurological deficits was evaluated 24 hours after ischemic insult using a five-point deficit score (0=normal motor function; 1=flexion of torso and of contralateral forelimb upon lifting of the animal by tail; 2=circling to the contralateral side but normal posture at rest; 3=leaning to contralateral side at rest; and 4=no spontaneous motor activity) (Hata et al. 1998).

In assay [6] the test system is C57BL/6 mice. The experiment in a line: Leukocyte/endothelial interactions by intravital microscopy through a cranial window in MCAO/R. The settings on record: treatment 1 hour before MCAO. It is filed as in vivo, mouse. The protocol:
On the day of cranial window implantation, the animals were anesthetized with an intraperitoneal injection of Ketamine (100 mg/ml)-Xylazine (20 mg/kg) mixture (1:1) at a dose of 1 ml/kg. The head was shaved and positioned in a stereotactic head holder. A 1 cm^2 area of skin on the dorsal surface of the skull over the right cortical hemisphere was excised and the periosteum was removed. A 4 mm diameter circular craniotomy was performed using a high speed drill (Champ-Air Dental Drill Benco Dental) over the right parietal cortex extending from attachment of the temporal muscle to midpoint of sagittal suture in the coronal direction and aligned to middle of the sagittal suture, so that the window contained some terminal branches of the middle cerebral artery. Normal saline was dripped over the cranium to avoid thermal injury of the cortex. […]
Leukocyte/endothelial interactions were evaluated before MCAO, 1 hour after MCAO and 24 hours after MCAO. […] Three venules (with diameter 30-50 μm) and three arterioles (with diameter 20-40 μm) in each animal were assessed. […] They were counted when they passed an arbitrary line perpendicular to the longitudinal axis of the vessel over a period of 30 seconds. […] Adhering leukocytes were scored as the number of cells per mm^2 of the vascular surface area, calculated from the diameter and standardized length (100 μm) of the vessel segment under investigation.

Assay [7] deals with C57BL/6 mice. Description: Thoracic spinal cord injury (SCI) model. Type of assay: in vivo, mouse. The protocol: A thoracic spinal cord injury model was induced in female 6-8 week old C57BL/6 mice. Spinal cord CB2 mRNA expression was evaluated in sham animals and SCI animals 24 hours after injury by real time RT-PCR. Animals were randomized into two groups: the experimental group received intraperitoneal injections of a selective CB2 agonist (O-1966; 1 mg/kg) one hour before injury, 24 and 48 hours after injury; the control group received equal volumes of vehicle. Both groups were tested for motor function by using the Basso Mouse Scale for Locomotion (BMS) and the Basso, Beattie, Bresnahan Locomotor Rating Scale (BBB) on post-procedure days 1, 7, and 14. Urine mass was recorded twice daily to assess bladder recovery. The inflammatory cytokine TNF-α was measured by real time RT-PCR in both groups 24 hours after SCI.

Assay [8] addresses T2, CB1 receptor (Rattus norvegicus, UniProt P20272).
T2 construct: from tissue; host or cells: rat brain membranes
The settings on record: reported previously (Wiley et al. 2002); read-out: affinity for CB1 cannabinoid receptor; cited from earlier work.

In assay [9] the target is T1, human CB2 receptor. Particulars: reported previously (Wiley et al. 2002); read-out: affinity for CB2 cannabinoid receptor; cited from earlier work.
Assay [10] has as its system mice. Particulars: reference CB1/CB2 agonist, all four measures; cited from earlier work.
[11] abbreviates: 1 mg/kg i.v. 10 minutes after reperfusion (post-reperfusion treatment).
Where [12] appears, read: 1 mg/kg i.v. 1 hour before MCAO (pre-ischemic treatment).

T1 sequence (P34972 whole entry): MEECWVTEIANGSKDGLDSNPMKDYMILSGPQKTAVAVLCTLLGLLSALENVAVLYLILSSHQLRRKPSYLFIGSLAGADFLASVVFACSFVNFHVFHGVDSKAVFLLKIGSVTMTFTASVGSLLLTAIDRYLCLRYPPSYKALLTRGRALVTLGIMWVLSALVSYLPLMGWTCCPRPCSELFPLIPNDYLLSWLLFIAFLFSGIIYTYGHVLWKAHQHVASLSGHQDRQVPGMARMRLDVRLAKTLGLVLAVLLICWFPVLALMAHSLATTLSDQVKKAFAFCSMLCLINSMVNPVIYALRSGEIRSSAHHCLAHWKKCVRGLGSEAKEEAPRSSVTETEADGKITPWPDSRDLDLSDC
T2 sequence (P20272 whole entry): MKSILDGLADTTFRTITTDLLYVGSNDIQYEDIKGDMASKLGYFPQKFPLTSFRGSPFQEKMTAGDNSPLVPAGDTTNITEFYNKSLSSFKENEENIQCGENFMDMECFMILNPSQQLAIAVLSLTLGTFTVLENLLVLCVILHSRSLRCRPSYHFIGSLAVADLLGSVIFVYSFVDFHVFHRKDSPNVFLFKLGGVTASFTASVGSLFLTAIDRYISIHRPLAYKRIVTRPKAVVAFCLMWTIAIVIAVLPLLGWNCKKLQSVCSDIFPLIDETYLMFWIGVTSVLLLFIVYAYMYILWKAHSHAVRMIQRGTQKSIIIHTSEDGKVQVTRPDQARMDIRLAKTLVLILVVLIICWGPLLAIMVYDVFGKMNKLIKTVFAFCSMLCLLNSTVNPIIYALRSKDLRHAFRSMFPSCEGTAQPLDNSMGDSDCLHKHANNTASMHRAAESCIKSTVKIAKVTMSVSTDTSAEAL

For `CCCCCCC(C)(C)c1cc(OC)c(C2(O)CCCC(C)C2)c(OC)c1` (centres unmarked) [O-1966], the EC50 in assay [1] (CHO cells with human CB2, read-out: EC50 for stimulating 35S-GTPγS binding (CB2)) was found to be 70 ± 14 nM. The same compound showed an Emax in assay [1] (percent of maximal stimulation produced by the full agonist CP 55,940) of 74 ± 5%. Also, the “effects in the tetrad test (CB1 receptor-mediated behavioural effects)” value in assay [2] is reported as “produced some modest behavioural effects only at doses that far exceeded those used in the MCAO/R studies; also recorded: failed to produce effects in the tetrad test”. Besides, the “effect on rCBF during the 1 hour occlusion period” value in assay [3] is given as “no effect on rCBF”. For the same compound, the figures for the infarct volume in assay [4] (setting [11]) and in assay [4] (setting [12]) were 71.3±5.5 mm^3 and 65.6±4.0 mm^3, respectively. In addition, the “infarct volume as percentage of the ipsilateral hemisphere” value in [4] (setting [11]) was determined as 27±2%; in [4] (setting [12]), 25±2.5%. Moreover, in assay [5] (pretreatment 1 hour before MCAO, vehicle 3.25±0.20), the motor function score stood at 1.69±0.30. Also, the motor function entry in [5] (treatment during reperfusion) is “significantly improved the motor function”. The leukocyte/endothelial interactions entry in assay [6] is on record as “attenuated leukocyte/endothelial interactions”. For the same compound, in assay [7] (1 mg/kg i.p. one hour before, 24 and 48 hours after injury, days 1, 7 and 14), the “motor function recovery (BMS and BBB)” value is on record as “better motor function recovery than the control group”. Further, the “bladder function recovery rate” value in assay [7] (1 mg/kg i.p., 14th day after SCI, control group 14%) is 45%. Besides, the “TNF-α expression in the injured spinal cord” value in assay [7] (real time RT-PCR, 24 hours after SCI, compared to control group) was “decreased TNF-α expression”. For the same compound, the Ki is 5060 nM in [8] and 23 ± 2.1 nM in assay [9].
For the compound `CCCCCc1cc(O)c2c(c1)OC(C)(C)[C@@H]1CCC(C)=C[C@@H]21` [Δ^9-tetrahydrocannabinol], the “ED50's in the four tetrad measures” value in assay [10] was 1 to 2 mg/kg.
